In patent US20090209535A1, “6-ETHER/THIOETHER-PURINES AS TOPOISOMERASE II CATALYTIC INHIBITORS AND THEIR USE IN THERAPY” (TOPOTARGET A/S, priority 2005, published 2009):
Where a name gives a salt, the structure may show the parent alone. Read-outs that look alike come from different tables or passages of the source. One block for each compound: values may come before it.

Key:
[1] = system: human SCLC OC—NYH cells; test: Clonogenic assay, antagonism of etoposide-induced cytotoxicity; format: cell-based
Method: Cells were then plated in 0.3% agar in 6 cm petri dishes with sheep red blood cells as feeder layer in triplicate, and were incubated under the same conditions as described above. Plates were counted after 3 weeks.
20 μM etoposide was then added, and the cells were incubated for one hour. Next, the drugs were washed out and the cells were plated and counted after three weeks as described herein.

[2] = biological target: T1, wild-type human topoisomerase II α (Homo sapiens, UniProt P11388); test: Topoisomerase II DNA strand passage assay (kDNA decatenation), wild-type enzyme; format: biochemical; conditions: for inhibition of DNA strand passage (decatenation) activity, in words: wild-type enzyme, FIG. 2-A and FIG. 5
T1 construct: made in house; host or cells: yeast (over-expressing yeast cells)
Method: Topoisomerase II catalytic activity (DNA strand passage activity) was measured by using a filter-based kDNA decatenation assay as described in Jensen et al., 2002. Briefly, 200 ng ^3H labelled kDNA isolated from C. fasciculata was incubated with increasing concentrations of drug in 20 μL reaction buffer containing 10 mM TRIS-HCl pH 7.7, 50 mM NaCl, 50 mM KCl, 5 mM MgCl2, 1 mM EDTA, 15 μg/mL BSA and 1 mM ATP using two units of purified wild-type or Y165S mutant topoisomerase II α for 20 minutes at 37° C. (where one unit of activity is defined as the amount of enzyme required for complete decatenation in the absence of drug). After addition of 5× stop buffer (5% Sarkosyl, 0.0025% bromophenol blue, and 50% glycerol), unprocessed kDNA network and decatenated DNA mini-circles were separated by filtering, and the amount of unprocessed kDNA in each reaction was determined by scintillation counting.
FIG. 2 describes the results of studies of the inhibition of topoisomerase II DNA strand passage activity by increasing concentrations of NSC 35866. Inhibition of human topoisomerase II α DNA strand passage activity was assessed by decatenation of tritium-labelled Crithidia fasiculata kDNA using a filter-based assay to separate unprocessed kDNA network from decatenated mini-circles. […] Error bars represent SEM of three independent experiments in panel A and two independent experiments in panel B.
Inhibition of human topoisomerase II α DNA strand passage activity was determined by decatenation of tritium labelled Crithidia fasiculata kDNA as described for FIG. 2. Error bars represent SEM of 3 or 4 independent experiments.

[3] = biological target: topoisomerase II α (Homo sapiens, UniProt P11388); test: Topoisomerase II ATPase assay (coupled, NADH oxidation); format: biochemical; design: made in house; host or cells: yeast (over-expressing yeast cells); conditions: for inhibition of ATPase activity in the presence of DTT, in words: 10 mM DTT in the reaction buffer
Method: The reaction was monitored spectrophotometrically at 340 nm using a Bio-Tek EL808 Ultra Micro plate Reader connected to a computer with KC4 Software installed (Bio-Tek Instruments, U.S.). The change in absorbance was related to ADP production using A340^1M=6220 cm^−1. […] The rate of ATP hydrolysis, V, was determined from the linear part of the curve.
The steady-state rate of ATP hydrolysis was determined using a coupled ATPase assay as described herein. […] Error bars represent SEM of two independent experiments each performed in duplicate.
The steady-state rate of ATP hydrolysis was determined as described in for FIG. 3 and as described herein. In this analysis, the rate of ATP hydrolysis in the absence of drug was set to one in all experiments. Error bars represent SEM of 2 or 3 independent experiments each preformed in duplicate.

[4] = system: human SCLC OC—NYH cells; test: Alkaline elution assay (DNA breaks); format: cell-based; conditions: 3 μM
Method: Alkaline elution assay was performed as described in Kohn et al., 1976 with modifications as described in Sehested et al., 1998. Briefly, to assess the ability of NSC 35866 to protect against etoposide-induced DNA breaks, cells were incubated with increasing concentrations of NSC 35866 for 10 minutes, before 3 μM etoposide was added to the samples. The cells were then co-incubated with 3 μM etoposide along with the same concentrations of NSC 35866 for 60 minutes. Some samples contained no etoposide in order to assess whether NSC 35866 induced DNA breaks by itself. After incubation with drug, cells were lysed and the DNA fragments eluted. DNA in the experimental OC—NYH cells was metabolically labelled by ^14C-thymidine incorporation while DNA in the internal control L1210 cells was metabolically labelled by ^3H-thymidine incorporation.
FIG. 9 describes the results of studies of the ability of NSC 35866 to antagonise DNA breaks induced by etoposide in human SCLC OC—NYH cells in a dose dependent manner. Alkaline DNA elution was used to detect DNA fragmentation induced by 3 μM etoposide in the presence of increasing concentrations of NSC 35866 as described herein. H202 treated mouse leukemic L1210 cells were used as internal control for DNA fragmentation. The DNA of the experimental OC—NYH cells was ^14C-labelled while the DNA of the L1210 cells was 3H-labelled.

[5] = biological target: T2, human topoisomerase II α-DNA covalent complexes (Homo sapiens, UniProt P11388); test: Topoisomerase II DNA cleavage assay (phenol-chloroform extraction, Δcpm); format: biochemical
T2 construct: made in house; host or cells: yeast (over-expressing yeast cells)
Source text: In order to determine the ability of NSC 35866 to increase the level of topoisomerase II-DNA covalent complexes on DNA in vitro, a new and highly sensitive topoisomerase II DNA cleavage assay having a numeric readout was developed. […] The DNA substrate is a 950 bp linear ^3H-labelled DNA synthesized by PCR in the presence of ^3H-dATP. […] The DNA fragment was isolated from unincorporated dNTPs by ethanol precipitation at 0.3 M NaCl, followed by washing in 70% ethanol. The specific activity of the fragment was typically 10,000-20,000 cpm/μg. Before starting the assay, a drug dilution series comprising 10× the final drug concentration was made. Reaction mixtures containing 100 ng of the 950 bp linear ^3H-labelled DNA, 300 ng human topoisomerase II q, topoisomerase II cleavage buffer (10 mM TRIS-HCL pH 7.9, 50 mM NaCl, 50 mM KCl, 5 mM MgCl2, 1 mM EDTA, 15 μg/mL BSA and 1 mM Na2ATP), and increasing concentrations of drug in 50 μL reaction volumes were then incubated 10 minutes at 37° C. A “no topoisomerase II” sample and a “no drug” sample were always included as controls. Next, the cleavable complex was trapped by adding 5 μL 10% SDS. After vigorous vortexing, 45 uL TE buffer, pH=8.0, was added to obtain 100 μL per sample. 100 μL phenol:chloroform:isoamyl alcohol (25:24:1) equilibrated with TE buffer, pH=8.0, was then added, and the samples were vortexed vigorously for 30 seconds. Finally, the samples were centrifuged at 20,000 g for 2 minutes and 90 μL of the upper water phase was used for scintillation counting using 15 mL of Ultima gold scintillation fluid (Packard).
In order to establish whether NSC 35866 inhibits the DNA strand passage reaction of topoisomerase II by stabilising a covalent reaction intermediate, a new and highly sensitive topoisomerase II DNA cleavage assay having a numeric read-out was developed. This assay is based on the fact that after extraction with phenol-chloroform, protein-bound DNA is removed from the water phase, while naked DNA remains in the water phase. […] Consequently, in reactions containing topoisomerase II and linear DNA, the ability of compounds to remove DNA from the water phase after phenol-chloroform extraction should reflect their potency as topoisomerase II poisons. This assay was first validated by incubating 100 ng of a linear 950 bp PCR DNA fragment with 300 ng of purified human topoisomerase II α in the presence of increasing concentrations of the etoposide and m-AMSA. The DNA fragment was ^3H labelled by performing PCR in the presence of ^3H-dATP. In these experiments, a “no topoisomerase II” sample was always included to determine the level of radioactivity (DNA) retained in the water-phase when no enzyme is present. Within each experiment, the CPM values retained in the water phase in the topoisomerase II reactions were then subtracted from this background CPM value to give Δcpm. Consequently, the Δcpm values of samples with no drug added represent the background level of topoisomerase II-DNA covalent complexes present in the reaction mixture under the assay conditions, while the Δcpm levels in the presence of drugs represent the levels of poison-induced topoisomerase II-DNA covalent complexes.

[6] = in the presence of DNA (DNA-stimulated), read-out: IC50, inhibition of ATPase activity
[7] = measured in the absence of DTT, read-out: IC50

Sequence of topoisomerase II α (P11388 whole entry): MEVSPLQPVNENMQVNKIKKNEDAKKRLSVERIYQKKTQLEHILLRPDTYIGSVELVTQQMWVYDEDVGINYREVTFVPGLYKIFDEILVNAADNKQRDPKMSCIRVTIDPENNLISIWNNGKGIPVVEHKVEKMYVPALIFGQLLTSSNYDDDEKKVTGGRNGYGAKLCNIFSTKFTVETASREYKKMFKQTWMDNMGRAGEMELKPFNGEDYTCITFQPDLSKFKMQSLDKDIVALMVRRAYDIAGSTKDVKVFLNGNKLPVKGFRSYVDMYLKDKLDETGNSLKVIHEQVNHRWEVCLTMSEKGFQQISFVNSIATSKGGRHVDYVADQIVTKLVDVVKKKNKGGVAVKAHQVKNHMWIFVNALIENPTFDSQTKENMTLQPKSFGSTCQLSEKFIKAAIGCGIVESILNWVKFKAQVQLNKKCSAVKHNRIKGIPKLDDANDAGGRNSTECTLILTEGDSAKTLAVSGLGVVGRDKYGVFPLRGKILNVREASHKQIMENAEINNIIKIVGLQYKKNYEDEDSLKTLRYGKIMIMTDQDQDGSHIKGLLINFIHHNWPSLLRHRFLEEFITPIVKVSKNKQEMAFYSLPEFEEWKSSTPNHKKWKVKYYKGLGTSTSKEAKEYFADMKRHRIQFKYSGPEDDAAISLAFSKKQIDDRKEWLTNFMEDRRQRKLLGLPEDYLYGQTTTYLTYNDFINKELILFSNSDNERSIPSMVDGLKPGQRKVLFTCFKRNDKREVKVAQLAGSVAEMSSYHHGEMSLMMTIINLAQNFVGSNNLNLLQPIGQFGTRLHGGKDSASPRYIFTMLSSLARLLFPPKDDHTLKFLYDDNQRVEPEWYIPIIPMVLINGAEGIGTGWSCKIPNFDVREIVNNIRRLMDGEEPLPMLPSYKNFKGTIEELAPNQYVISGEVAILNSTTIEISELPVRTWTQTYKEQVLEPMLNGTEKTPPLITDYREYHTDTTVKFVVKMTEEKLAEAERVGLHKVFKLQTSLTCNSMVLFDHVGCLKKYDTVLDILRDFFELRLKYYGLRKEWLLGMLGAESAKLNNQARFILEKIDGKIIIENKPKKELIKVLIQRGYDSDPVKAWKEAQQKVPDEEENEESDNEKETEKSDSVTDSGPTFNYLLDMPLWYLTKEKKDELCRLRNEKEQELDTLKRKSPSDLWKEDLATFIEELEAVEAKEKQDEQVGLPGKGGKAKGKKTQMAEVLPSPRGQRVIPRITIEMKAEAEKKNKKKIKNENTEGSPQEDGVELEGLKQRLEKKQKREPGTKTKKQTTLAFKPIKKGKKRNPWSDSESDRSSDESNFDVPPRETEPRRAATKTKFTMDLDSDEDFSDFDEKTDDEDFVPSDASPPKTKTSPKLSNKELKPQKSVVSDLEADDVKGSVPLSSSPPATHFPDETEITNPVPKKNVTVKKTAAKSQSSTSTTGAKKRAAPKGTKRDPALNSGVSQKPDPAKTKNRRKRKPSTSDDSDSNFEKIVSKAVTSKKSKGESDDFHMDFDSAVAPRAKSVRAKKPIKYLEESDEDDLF
T1 sequence (P11388 whole entry): as above
T2 sequence (P11388 whole entry, one chain of several): as the sequence (P11388 whole entry) above

Structure (SMILES): S=c1[nH]c(=S)c2[nH]cnc2[nH]1 [2,6-dithiopurine]
effect on the level of etoposide-induced cytotoxicity, in words ([1]; concentrations up to 30 μM): no detectable effect | inhibition of DNA strand passage (decatenation) activity, in words [2]: an effect between that of the two 6-substituted thiopurines | IC50 [3, 6]: ~3 µM

Structure (SMILES): Sc1ncc2nc[nH]c2n1 [2-thiopurine]
effect on the level of etoposide-induced cytotoxicity, in words ([1]; concentrations up to 30 μM): no detectable effect | inhibition of DNA strand passage (decatenation) activity, in words [2]: virtually no effect | IC50 [3, 6]: ~3 µM

Structure (SMILES): Nc1nc(Cl)c2nc[nH]c2n1 [6-chloroguanine, reference compound]
inhibitory effect on ATPase reaction, in words ([3]; concentration not given): no inhibitory effect

Structure (SMILES): CSc1nc(N)nc2nc[nH]c12 [6-methylthioguanine]
effect on the level of etoposide-induced cytotoxicity, in words ([1]; concentrations up to 500 μM): no detectable effect | inhibition of DNA strand passage (decatenation) activity, in words [2]: almost no inhibition of decatenation activity | inhibitory effect on ATPase reaction, in words ([3]; concentration not given): capable of inhibiting topoisomerase II ATPase activity

Structure (SMILES): Nc1nc2nc[nH]c2c(=S)[nH]1 [6-thioguanine, reference compound]
IC50 ([2]; FIG. 5, read-out: half-maximal inhibition of DNA strand passage activity): ~50 µM | IC50 [3, 6]: ~30 µM

Structure (SMILES): Sc1ncnc2nc[nH]c12 [6-thiopurine]
effect on the level of etoposide-induced cytotoxicity, in words ([1]; concentrations up to 300 μM): no detectable effect | concentration at which maximal inhibition of DNA strand passage activity is reached ([2]; FIG. 5): > 1000 µM | IC50 [3, 6]: ~100 µM

Structure (SMILES): Nc1nc2c(ncn2Cc2ccccc2)c(=O)[nH]1 [9-benzylguanine, reference compound]
inhibitory effect on ATPase reaction, in words ([3]; concentrations up to 300 μM): no inhibitory effect

Structure (SMILES): Nc1nc(OCC2CCCCC2)c2nc[nH]c2n1 [NU 2058, O^6-cyclohexylmethylguanine]
inhibition of ATPase activity in the presence of DTT, in words [3]: could inhibit ATPase activity | IC50 [3, 6]: 300 µM

Structure (SMILES): Nc1nc(OCc2ccccc2)c2nc[nH]c2n1 [O^6-benzylguanine]
inhibition of ATPase activity in the presence of DTT, in words [3]: could inhibit ATPase activity | IC50 [3, 6]: 1000 µM

Structure (SMILES): COc1nc(N)nc2nc[nH]c12 [O^6-methylguanine, reference compound]
inhibitory effect on ATPase reaction, in words ([3]; concentrations up to 300 μM): no detectable inhibitory effect

Structure (SMILES): Nc1nc2c(ncn2COCCO)c(=O)[nH]1 [acyclovir, 9-[(2-hydroxyethoxy)methyl]guanine, reference compound]
inhibitory effect on ATPase reaction, in words ([3]; concentrations up to 300 μM): no inhibitory effect

Structure (SMILES): Cn1cnc([N+](=O)[O-])c1Sc1ncnc2nc[nH]c12 [azathioprine, 6-(1-methyl-4-nitroimidazol-5-yl)thiopurine, reference compound]
effect on the level of etoposide-induced cytotoxicity, in words ([1]; concentrations up to 500 μM): no detectable effect | inhibitory effect on ATPase reaction, in words ([3]; concentration not given): capable of inhibiting topoisomerase II ATPase activity

Structure (SMILES): COc1cc([C@@H]2c3cc4c(cc3[C@@H](O[C@@H]3O[C@@H]5CO[C@@H](C)O[C@H]5[C@H](O)[C@H]3O)[C@H]3COC(=O)[C@H]23)OCO4)cc(OC)c1O [etoposide, 4′-demethylepipodophyllotoxin 9-(4,6-O-ethylidene-b-D-glucopyranoside)]
DNA fragmentation by the drug alone, in words [4]: extensive fragmentation of DNA | effect on Δcpm with increasing concentrations, in words ([5]; ATP omitted from the reaction): no detectable increase in Δcpm | increase of the level of covalent complex formation, factor ([5]; etoposide up to 40 μM, with ATP): 6 | effect on Δcpm with increasing concentrations, in words ([5]; with ATP, FIG. 6): increase Δcpm in a dose-dependent manner

Structure (SMILES): COc1cc(NS(C)(=O)=O)ccc1Nc1c2ccccc2nc2ccccc12 [m-AMSA, methanesulfone-m-anisidine-4′-[(9-acridinyl)amino] hydrochloride]
effect on Δcpm with increasing concentrations, in words ([5]; with ATP, FIG. 6): increase Δcpm in a dose-dependent manner

The next lines start with the values.

IC50 [3, 7]: 13.4 µM
Structure (SMILES): Nc1nc(SCc2ccccc2)c2[nH]cnc2n1 [NSC15747]

IC50 [3, 7]: 85.4 µM
Structure (SMILES): CCCCCSc1nc(N)nc2[nH]cnc12 [NSC35862]

IC50 [3, 7]: 53.6 µM
Structure (SMILES): Nc1nc(SCc2ccc(F)cc2)c2nc[nH]c2n1 [NSC35865]

IC50 [3, 7]: 68.9 µM
Structure (SMILES): Nc1nc(SC/C=C/c2ccccc2)c2nc[nH]c2n1 [NSC36824]

IC50 [3, 7]: 34.1 µM
Structure (SMILES): CNc1ncnc(Sc2nc(N)nc3[nH]cnc23)c1[N+](=O)[O-] [NSC38732]

IC50 [3, 7]: 151 µM
Structure (SMILES): Nc1nc(SCCCc2ccccc2)c2nc[nH]c2n1 [NSC39328]

IC50 [3, 7]: 19 µM
Structure (SMILES): N#CCSc1nc(N)nc2[nH]cnc12 [NSC39331]

IC50 [3, 7]: 7.87 µM
Structure (SMILES): CCn1c(C)nc([N+](=O)[O-])c1Sc1nc(N)nc2[nH]cnc12 [NSC42375]

IC50 [3, 7]: 14.1 µM
Structure (SMILES): Cc1ccc(CSc2nc(N)nc3[nH]cnc23)cc1 [NSC46384]

IC50 [3, 7]: 12.7 µM
Structure (SMILES): CSc1nc(Cl)c(Br)c(Sc2nc(N)nc3[nH]cnc23)n1 [NSC52383]

IC50 [3, 7]: 36.4 µM
Structure (SMILES): CCSc1nc(N)c(Br)c(Sc2nc(N)nc3[nH]cnc23)n1 [NSC52388]

IC50 [3, 7]: 121 µM
Structure (SMILES): Cn1cnc([N+](=O)[O-])c1Sc1nc(N)nc2c1ncn2C1CC(O)C(CO)O1 (stereo not shown) [NSC172614]

IC50 [3, 7]: 2.74 µM
Structure (SMILES): CCOC(=O)c1cc([N+](=O)[O-])c(Sc2ncnc3[nH]cnc23)c([N+](=O)[O-])c1 [NSC244708]

IC50 [3, 7]: 0.389 µM
Structure (SMILES): Nc1nc(Sc2cc([N+](=O)[O-])c3nonc3c2)c2ncn(C3OC(CO)C(O)C3O)c2n1 (stereo not shown) [NSC348400]

IC50 [3, 7]: 0.372 µM
Structure (SMILES): Nc1nc(Sc2ccc([N+](=O)[O-])c3nonc23)c2[nH]cnc2n1 [NSC348401]

IC50 [3, 7]: 0.777 µM
Structure (SMILES): O=[N+]([O-])c1ccc(Sc2ncnc3[nH]cnc23)c2nonc12 [NSC348402]

IC50 [3, 7]: 119 µM
Structure (SMILES): CC(=O)OCSc1ncnc2c1ncn2CN1CCOCC1 [NSC647471]
